Legend:
[1] = DRUGMATRIX: Sodium/nucleoside co-transporter radioligand binding (ligand: nitrobenzylthioinosine); assay type: cell membranes, Cavia porcellus, Dunkin-Hartley, Cerebral cortex, Membrane; conditions: Not Active = under 50% inhibition at 10 µM
[2] = target: T1, Alpha-1A adrenergic receptor (Rattus norvegicus, UniProt P43140); assay: DRUGMATRIX: Alpha-1A adrenergic receptor radioligand binding (ligand: prazosin); assay type: cell membranes, Wistar, Submaxillary gland, Membrane; conditions: Not Active = under 50% inhibition at 10 µM
T1 sequence (P43140 whole entry): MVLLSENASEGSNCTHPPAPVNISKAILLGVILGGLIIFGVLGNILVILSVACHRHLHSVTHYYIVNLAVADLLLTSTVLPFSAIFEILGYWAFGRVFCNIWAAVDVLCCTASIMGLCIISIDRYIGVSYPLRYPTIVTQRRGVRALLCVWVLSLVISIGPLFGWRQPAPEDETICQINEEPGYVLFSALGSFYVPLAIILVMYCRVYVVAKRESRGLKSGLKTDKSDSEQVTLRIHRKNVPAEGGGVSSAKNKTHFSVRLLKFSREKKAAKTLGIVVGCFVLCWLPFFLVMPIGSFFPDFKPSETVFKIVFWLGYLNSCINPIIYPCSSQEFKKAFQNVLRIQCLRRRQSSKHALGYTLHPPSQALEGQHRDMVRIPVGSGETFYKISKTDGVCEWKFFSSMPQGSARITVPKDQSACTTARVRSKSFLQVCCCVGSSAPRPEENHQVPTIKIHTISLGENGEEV

[3] = DRUGMATRIX: Potassium Channel [KATP] radioligand binding (ligand: [3H] Glyburide); assay type: cell membranes, Membrane; conditions: hit-t15; Not Active = under 50% inhibition at 10 µM
[4] = target: C-C chemokine receptor type 2 (Homo sapiens, UniProt P41597); assay type: cell membranes, Membrane; conditions: cho-k1; also: in other assays of this panel Not Active means under 50% inhibition at 10 µM
[5] = target: Histamine H2 receptor (Homo sapiens, UniProt P25021); assay type: cell membranes, CHO-K1, Membrane; conditions: cho-k1; also: in other assays of this panel Not Active means under 50% inhibition at 10 µM
[6] = target: T2, Cytochrome P450 1A2 (Homo sapiens, UniProt P05177); conditions: bti-tn-5b1-4; also: in other assays of this panel Not Active means under 50% inhibition at 10 µM
T2 sequence (P05177 whole entry): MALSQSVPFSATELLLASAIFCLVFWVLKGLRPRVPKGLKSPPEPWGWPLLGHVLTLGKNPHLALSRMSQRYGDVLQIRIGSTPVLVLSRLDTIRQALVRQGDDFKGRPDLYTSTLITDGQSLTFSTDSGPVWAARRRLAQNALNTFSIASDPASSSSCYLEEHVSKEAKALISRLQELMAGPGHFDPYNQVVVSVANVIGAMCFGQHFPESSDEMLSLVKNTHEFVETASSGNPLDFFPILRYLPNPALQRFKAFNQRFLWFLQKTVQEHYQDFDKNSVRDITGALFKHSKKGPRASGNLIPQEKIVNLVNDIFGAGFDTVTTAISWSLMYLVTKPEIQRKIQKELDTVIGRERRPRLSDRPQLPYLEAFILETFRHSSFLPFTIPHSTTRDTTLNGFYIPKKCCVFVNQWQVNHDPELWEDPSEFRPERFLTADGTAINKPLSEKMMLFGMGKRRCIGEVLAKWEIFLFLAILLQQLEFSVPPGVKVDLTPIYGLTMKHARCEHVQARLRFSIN

[7] = target: 5-hydroxytryptamine receptor 1B (Rattus norvegicus, UniProt P28564); assay type: cell membranes, Wistar, Cerebral cortex, Membrane; also: in other assays of this panel Not Active means under 50% inhibition at 10 µM
Chain of 5-hydroxytryptamine receptor 1B (P28564 whole entry): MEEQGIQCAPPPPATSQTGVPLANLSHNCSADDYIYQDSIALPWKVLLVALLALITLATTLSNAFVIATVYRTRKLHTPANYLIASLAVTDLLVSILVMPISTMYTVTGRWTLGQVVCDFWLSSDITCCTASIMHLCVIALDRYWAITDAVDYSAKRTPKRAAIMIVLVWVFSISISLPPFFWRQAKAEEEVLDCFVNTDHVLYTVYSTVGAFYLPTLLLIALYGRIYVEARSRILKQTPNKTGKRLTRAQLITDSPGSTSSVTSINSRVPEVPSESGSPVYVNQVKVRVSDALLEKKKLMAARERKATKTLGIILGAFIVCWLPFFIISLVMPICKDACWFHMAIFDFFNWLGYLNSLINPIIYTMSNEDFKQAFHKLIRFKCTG

Chain of Histamine H2 receptor (P25021 whole entry): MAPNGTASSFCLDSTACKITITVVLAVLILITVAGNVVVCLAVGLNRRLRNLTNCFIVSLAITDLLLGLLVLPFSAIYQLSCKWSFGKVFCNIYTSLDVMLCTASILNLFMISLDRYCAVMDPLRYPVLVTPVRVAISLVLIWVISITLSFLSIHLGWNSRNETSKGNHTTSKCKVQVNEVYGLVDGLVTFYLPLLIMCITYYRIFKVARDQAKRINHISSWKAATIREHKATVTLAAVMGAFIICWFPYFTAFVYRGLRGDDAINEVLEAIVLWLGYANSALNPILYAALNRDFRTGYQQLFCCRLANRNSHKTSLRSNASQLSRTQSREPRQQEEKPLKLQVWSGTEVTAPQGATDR
Chain of C-C chemokine receptor type 2 (P41597 whole entry): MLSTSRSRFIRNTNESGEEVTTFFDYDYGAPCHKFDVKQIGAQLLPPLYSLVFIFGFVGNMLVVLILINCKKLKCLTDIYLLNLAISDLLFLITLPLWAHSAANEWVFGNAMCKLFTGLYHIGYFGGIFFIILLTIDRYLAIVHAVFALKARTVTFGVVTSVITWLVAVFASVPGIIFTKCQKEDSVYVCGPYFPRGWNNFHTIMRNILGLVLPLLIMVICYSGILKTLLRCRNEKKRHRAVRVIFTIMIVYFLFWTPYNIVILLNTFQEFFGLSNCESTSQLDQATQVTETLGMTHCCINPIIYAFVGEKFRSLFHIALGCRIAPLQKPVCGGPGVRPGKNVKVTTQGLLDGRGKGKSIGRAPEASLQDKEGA

Compound | IC50 [1] | Ki [1] | IC50 [2] | IC50 [3] | Ki [3] | IC50 [4] | IC50 [5] | IC50 [6] | Ki [6] | IC50 [7] | Ki [2] | Ki [4] | Ki [5] | Ki [7] | IC50 ([2]; read-out: IC50) | Ki ([2]; read-out: Ki)
Cc1nnc2n1-c1ccc(Cl)cc1C(c1ccccc1)=NC2 [ALPRAZOLAM] | Not Active | Not Active | Not Active | Not Active | Not Active | Not Active | Not Active | Not Active | Not Active | Not Active | – | – | – | – | – | –
COC(=O)CCc1ccc(OCC(O)CNC(C)C)cc1 (centres undefined) [ESMOLOL] | Not Active | Not Active | Not Active | Not Active | Not Active | Not Active | Not Active | Not Active | Not Active | Not Active | – | – | – | – | – | –
COc1ccc2cc3[n+](cc2c1OC)CCc1cc2c(cc1-3)OCO2.[Cl-] [BERBERINE CHLORIDE] | Not Active | Not Active | Not Active | Not Active | Not Active | Not Active | Not Active | Not Active | Not Active | Not Active | – | – | – | – | – | –
NC(=O)C[S+]([O-])C(c1ccccc1)c1ccccc1 (centres undefined) [MODAFINIL] | Not Active | Not Active | Not Active | Not Active | Not Active | Not Active | Not Active | Not Active | Not Active | Not Active | – | – | – | – | – | –
CC(C)=CCC/C(C)=C/CO [GERANIOL] | Not Active | Not Active | Not Active | Not Active | Not Active | Not Active | Not Active | – | – | Not Active | – | – | – | – | – | –
NCCCC(O)(P(=O)(O)O)P(=O)(O)O [ALENDRONIC ACID] | Not Active | Not Active | Not Active | Not Active | Not Active | Not Active | Not Active | – | – | Not Active | – | – | – | – | – | –
C[C@@H]1CC[C@@]2(OC1)O[C@H]1[C@@H](O)[C@H]3[C@@H]4CC[C@H]5C[C@@H](O[C@@H]6O[C@H](CO)[C@H](O[C@@H]7O[C@H](CO)C(O)[C@H](O[C@@H]8OC[C@@H](O)[C@H](O)[C@H]8O)[C@H]7O[C@@H]7O[C@H](CO)[C@H](O)[C@H](O[C@@H]8O[C@H](CO)[C@@H](O)[C@H](O)[C@H]8O)[C@H]7O)[C@H](O)[C@H]6O)[C@H](O)C[C@]5(C)[C@H]4CC[C@]3(C)[C@H]1[C@@H]2C (some centres undefined) [DIGITONIN] | Not Active | Not Active | Not Active | Not Active | Not Active | Not Active | Not Active | Not Active | Not Active | Not Active | – | – | – | – | – | –
O=C1CN=C(c2ccccc2Cl)c2cc([N+](=O)[O-])ccc2N1 [CLONAZEPAM] | Not Active | Not Active | Not Active | Not Active | Not Active | Not Active | Not Active | Not Active | Not Active | Not Active | – | – | – | – | – | –
AURANOFIN | Not Active | Not Active | Not Active | Not Active | Not Active | Not Active | Not Active | Not Active | Not Active | Not Active | Not Active | Not Active | Not Active | Not Active | – | –
COC(=O)Nc1nc2ccc(C(=O)c3cccs3)cc2[nH]1 [NOCODAZOLE] | Not Active | Not Active | Not Active | Not Active | Not Active | Not Active | Not Active | Not Active | Not Active | Not Active | – | – | – | – | – | –
C[C@H]1O[C@@H](n2cc(F)c(=O)[nH]c2=O)[C@H](O)[C@@H]1O [DOXIFLURIDINE] | Not Active | Not Active | Not Active | Not Active | Not Active | Not Active | Not Active | Not Active | Not Active | Not Active | – | – | – | – | – | –
CC(C(=O)O)c1ccc2oc(-c3ccc(Cl)cc3)nc2c1 (centres undefined) [BENOXAPROFEN] | Not Active | Not Active | Not Active | Not Active | Not Active | Not Active | Not Active | Not Active | Not Active | Not Active | – | – | – | – | – | –
O=c1cc(N2CCOCC2)oc2c(-c3ccccc3)cccc12 [LY-294002] | Not Active | Not Active | Not Active | Not Active | Not Active | Not Active | Not Active | – | – | Not Active | – | – | – | – | – | –
CCn1cc(C(=O)O)c(=O)c2cnc(N3CCCC3)nc21 [PIROMIDIC ACID] | Not Active | Not Active | Not Active | Not Active | Not Active | Not Active | Not Active | – | – | Not Active | – | – | – | – | – | –
CC(=O)[C@@]1(O)CC[C@H]2[C@@H]3CCC4=CC(=O)CC[C@]4(C)[C@H]3CC[C@@]21C [HYDROXYPROGESTERONE] | Not Active | Not Active | Not Active | Not Active | Not Active | Not Active | Not Active | – | – | Not Active | – | – | – | – | – | –
Oc1c(Cl)cc(Cl)c(Cl)c1Cc1c(O)c(Cl)cc(Cl)c1Cl [HEXACHLOROPHENE] | Not Active | Not Active | Not Active | Not Active | Not Active | Not Active | Not Active | – | – | Not Active | – | – | – | – | – | –
CC(C)c1cccc(C(C)C)c1O [PROPOFOL] | Not Active | Not Active | Not Active | Not Active | Not Active | Not Active | Not Active | – | – | Not Active | – | – | – | – | – | –
CCCNCC(O)COc1ccccc1C(=O)CCc1ccccc1 (centres undefined) [PROPAFENONE] | Not Active | Not Active | – | Not Active | Not Active | Not Active | Not Active | – | – | Not Active | – | – | – | – | 6.15 µM | 2.49 µM
CC(C)NCC(O)COc1cccc2[nH]ccc12 (centres undefined) [PINDOLOL] | Not Active | Not Active | Not Active | Not Active | Not Active | Not Active | Not Active | – | – | Not Active | – | – | – | – | – | –
COc1cc2nc(N3CCN(C(=O)c4ccco4)CC3)nc(N)c2cc1OC [PRAZOSIN] | Not Active | Not Active | – | Not Active | Not Active | Not Active | Not Active | Not Active | Not Active | Not Active | – | – | – | – | – | –
COc1cc([C@@H]2c3cc4c(cc3[C@@H](O[C@@H]3O[C@@H]5CO[C@@H](C)O[C@H]5[C@H](O)[C@H]3O)[C@H]3COC(=O)[C@H]23)OCO4)cc(OC)c1O [ETOPOSIDE] | Not Active | Not Active | Not Active | Not Active | Not Active | Not Active | Not Active | – | – | Not Active | – | – | – | – | – | –
COc1ccc2c3c1O[C@H]1C[C@@H](O)C=C[C@@]31CCN(C)C2 [GALANTAMINE] | Not Active | Not Active | Not Active | Not Active | Not Active | Not Active | Not Active | – | – | Not Active | – | – | – | – | – | –
CN1[C@@H]2CC[C@H]1C[C@@H](OC(=O)C(CO)c1ccccc1)C2 (some centres undefined) [ATROPINE] | Not Active | Not Active | Not Active | Not Active | Not Active | Not Active | Not Active | – | – | Not Active | – | – | – | – | – | –
CN/C(=N\CCSCc1nc[nH]c1C)NC#N [CIMETIDINE] | Not Active | Not Active | Not Active | Not Active | Not Active | Not Active | – | Not Active | Not Active | Not Active | – | – | – | – | – | –

Reference: ChEMBL document CHEMBL1909046, “DrugMatrix in vitro pharmacology data”
